Experimental data as given in patent US12390626B2, “Method of producing substances with supersaturated gas, transdermal delivery device thereof, and uses thereof” (Circularity Healthcare, LLC, priority 2012, dated 2025).
“And” between values parts separate entries of the source, which are not always exact repeats. Equal entries are not always repeated.

How the values were obtained:
individuals [1] = assay: Measurement of blood pressure: brachial diastolic and systolic, right upper arm, after transdermal CO2 vapor treatment; assay type: in vivo, human; design: Brachial Systolic / Brachial Diastolic: unit not given here; conditions: for Brachial Diastolic Percent / Brachial Systolic Percent: percent of pre-treatment; for Brachial Diastolic Percent / Brachial Systolic Percent / Brachial Diastolic / Brachial Systolic: per patient
Method: (§1) The treatment was administered by having an individual insert the left thumb into the open-ended delivery outlet of a device disclosed herein creating a seal. The digit will be “bathed” for five minutes with a vapor including supersaturated dissolved molecular carbon dioxide from a canister providing pure, medical-grade carbon dioxide. Nine individuals were examined.
To conduct this study, individuals from the study described in Example 1 had there blood pressure taken. A measurement of both brachial diastolic blood pressure and systolic blood pressure was performed on the individual's right upper arm at six time points 1) 5 minutes before treatment (pre-treatment); 2) 5 minutes post-treatment; 3) 30 minutes post-treatment; 4) 60 minutes post-treatment; 5) 120 minutes post-treatment; and 6) 240 minutes post-treatment.

individuals [2] = assay: Measurement of blood flow: Skin Perfusion Pressure (SensiLase System, laser Doppler) on right toe after transdermal CO2 vapor treatment of left thumb; assay type: in vivo, human; conditions: for SPP: right toe
Method: as §1
Tissue perfusion in distal arteries was accessed using a SensiLase System (a FDA-cleared device) and measuring Skin Perfusion Pressure (SPP) and Pulse Volume Recording (PVR). SPP is a pressure measurement in mmHg that assess local blood perfusion in capillaries using a laser Doppler to measure reactive hyperemia, which reflects microcirculation for distal arterial blood flow. PVR is a measurement of plethysmography to assess changes in arterial blood volume. A change in capillary blood flow (CBF) is calculated by determining the change in SPP values over time. For this study, the CBF values of all post-treatment measurements were calculated by dividing the post-treatment SPP value by the pre-treatment SPP value. A measurement of SPP was performed on the individual's right toe at six time points 1) 5 minutes before treatment (pre-treatment); 2) 5 minutes post-treatment; 3) 30 minutes post-treatment; 4) 60 minutes post-treatment; 5) 120 minutes post-treatment; and 6) 240 minutes post-treatment.

[3] = Post Treatment (5 min), right upper arm
[4] = nine individuals, 5-240 min post-treatment
[5] = seven of the nine individuals studied

O=C=O [molecular carbon dioxide, carbon dioxide]
Brachial Diastolic Percent (individuals [1]; Post Treatment (5 min)): 98% and 100% and 77% (2×) and 113% and 80% (2×) and 89% and 111%
Brachial Systolic Percent (individuals [1]; Post Treatment (5 min)): 92% (2×) and 94% (2×) and 95% and 79% and 98% and 73% and 80%
Brachial Diastolic (individuals [1]; [3]): 78 and 68 (3×) and 60 (2×) and 72 (2×) and 80
Brachial Systolic (individuals [1]; [3]): 110 (2×) and 132 and 104 and 98 and 124 and 101 and 112 (2×)
Brachial Diastolic (individuals [1]; Post Treatment (30 min)): 70 (3×) and 58 and 62 and 78 and 80 and 52
Brachial Systolic (individuals [1]; Post Treatment (30 min)): 110 and 98 and 100 and 112 (2×) and 118 (3×)
Brachial Diastolic Percent (individuals [1]; Post Treatment (30 min)): 88% and 73% and 103% and 87% (2×) and 100% and 67% and 92%
Brachial Systolic Percent (individuals [1]; Post Treatment (30 min)): 92% and 89% and 96% and 80% and 94% and 81% and 84% and 97%
Brachial Diastolic (individuals [1]; Post Treatment (60 min)): 82 and 70 and 78 (2×) and 60 and 68 and 50 and 72 and 62
Brachial Systolic (individuals [1]; Post Treatment (60 min)): 138 and 118 (2×) and 115 and 150 and 106 and 110 (2×) and 128
Brachial Diastolic Percent (individuals [1]; Post Treatment (60 min)): 108% and 97% and 98% and 88% and 87% (2×) and 83% and 90% and 79%
Brachial Systolic Percent (individuals [1]; Post Treatment (60 min)): 99% and 97% and 96% (2×) and 107% and 106% and 79% and 102% and 86%
Brachial Diastolic (individuals [1]; Post Treatment (120 min)): 68 (2×) and 70 (2×) and 60 and 49 and 62 and 65 and 69
Brachial Systolic (individuals [1]; Post Treatment (120 min)): 120 and 128 and 90 and 127 and 102 and 110 and 111 and 116 and 118
Brachial Diastolic Percent (individuals [1]; Post Treatment (120 min)): 89% and 97% and 75% and 72% (2×) and 79% and 117% and 86% and 87%
Brachial Systolic Percent (individuals [1]; Post Treatment (120 min)): 86% (2×) and 105% and 75% and 91% and 93% and 106% and 79% and 92%
Brachial Diastolic (individuals [1]; Post Treatment (240 min)): 70 and 64 and 59 and 80 and 68 and 58 and 62 and 71 and 69
Brachial Systolic (individuals [1]; Post Treatment (240 min)): 118 (2×) and 108 (2×) and 113 and 140 and 112 (2×) and 117
Brachial Diastolic Percent (individuals [1]; Post Treatment (240 min)): 92% and 89% (2×) and 74% and 118% and 87% and 97% and 69% and 88%
Brachial Systolic Percent (individuals [1]; Post Treatment (240 min)): 84% and 89% and 94% (2×) and 100% and 102% and 104% and 80% and 85%
effect on blood pressure (individuals [1]; [4]): decreased blood pressure in all individuals examined at some point during the time period measured
duration of decrease in diastolic and systolic blood pressure (individuals [1]; [5]): decreased diastolic and systolic blood pressure over the course of the entire 240 minute study
CBF (individuals [2]; Post Treatment (5 min), post-treatment SPP / pre-treatment SPP, per patient): 124% and 104% and 102% and 87% and 117% and 122% and 109% and 113% and 114%
SPP (individuals [2]; Post Treatment (5 min), one value per patient (1-9), 5 min vapor on left thumb): 52 mmHg and 85 mmHg and 84 mmHg and 60 mmHg and 75 mmHg and 89 mmHg and 116 mmHg and 71 mmHg and 132 mmHg
CBF (individuals [2]; Post Treatment (30 min), post/pre-treatment SPP, per patient): 124% and 112% and 109% and 91% and 119% and 92% and 106% and 114%
SPP (individuals [2]; Post Treatment (30 min), per patient): 54 mmHg and 0 mmHg and 92 mmHg and 75 mmHg and 58 mmHg and 87 mmHg and 97 mmHg and 67 mmHg and 142 mmHg
CBF (individuals [2]; Post Treatment (60 min), post/pre-treatment SPP, per patient): 124% (2×) and 102% and 104% and 112% and 84% and 103% and 114% and 134%
SPP (individuals [2]; Post Treatment (60 min), per patient): 54 mmHg (2×) and 84 mmHg and 85 mmHg and 77 mmHg and 75 mmHg and 131 mmHg and 72 mmHg and 156 mmHg
CBF (individuals [2]; Post Treatment (120 min), post/pre-treatment SPP, per patient): 138% and 135% and 109% and 112% and 125% and 129% and 82% and 106% and 119%
SPP (individuals [2]; Post Treatment (120 min), per patient): 58 mmHg and 111 mmHg and 89 mmHg and 77 mmHg and 80 mmHg and 94 mmHg and 87 mmHg and 67 mmHg and 138 mmHg
CBF (individuals [2]; Post Treatment (240 min), post/pre-treatment SPP, per patient): 110% and 120% and 135% and 46% and 95% and 104% and 82% and 103% and 115%
SPP (individuals [2]; Post Treatment (240 min), per patient): 46 mmHg and 98 mmHg and 111 mmHg and 32 mmHg and 61 mmHg and 76 mmHg and 91 mmHg and 65 mmHg and 133 mmHg
increase in capillary blood flow (individuals [2]; four of these (of the seven of nine individuals)): ≥ 35%
effect on blood flow (individuals [2]; [4]): increases blood flow in all individuals examined at some point during the time period measured
increase in capillary blood flow over baseline (individuals [2]; [5]): about 25%
duration of increase in capillary blood flow (individuals [2]; six of the nine patients): sustained increases in capillary blood flow over the course of the entire 240 minute study
